# Patent publication US4342690A, “ω-Heteroaroyl(propionyl or butyryl)-L-prolines” (American Cyanamid Company, priority 1981, dated 1982)
# Target: T1, angiotensin converting enzyme (Oryctolagus cuniculus, UniProt P12822)
# T1 construct: The ACE was extracted from rabbit lung acetone powder; tissue Pel-Freez Biol. Inc; host or cells: rabbit lung (acetone powder)
# T1 sequence (P12822 34-1310): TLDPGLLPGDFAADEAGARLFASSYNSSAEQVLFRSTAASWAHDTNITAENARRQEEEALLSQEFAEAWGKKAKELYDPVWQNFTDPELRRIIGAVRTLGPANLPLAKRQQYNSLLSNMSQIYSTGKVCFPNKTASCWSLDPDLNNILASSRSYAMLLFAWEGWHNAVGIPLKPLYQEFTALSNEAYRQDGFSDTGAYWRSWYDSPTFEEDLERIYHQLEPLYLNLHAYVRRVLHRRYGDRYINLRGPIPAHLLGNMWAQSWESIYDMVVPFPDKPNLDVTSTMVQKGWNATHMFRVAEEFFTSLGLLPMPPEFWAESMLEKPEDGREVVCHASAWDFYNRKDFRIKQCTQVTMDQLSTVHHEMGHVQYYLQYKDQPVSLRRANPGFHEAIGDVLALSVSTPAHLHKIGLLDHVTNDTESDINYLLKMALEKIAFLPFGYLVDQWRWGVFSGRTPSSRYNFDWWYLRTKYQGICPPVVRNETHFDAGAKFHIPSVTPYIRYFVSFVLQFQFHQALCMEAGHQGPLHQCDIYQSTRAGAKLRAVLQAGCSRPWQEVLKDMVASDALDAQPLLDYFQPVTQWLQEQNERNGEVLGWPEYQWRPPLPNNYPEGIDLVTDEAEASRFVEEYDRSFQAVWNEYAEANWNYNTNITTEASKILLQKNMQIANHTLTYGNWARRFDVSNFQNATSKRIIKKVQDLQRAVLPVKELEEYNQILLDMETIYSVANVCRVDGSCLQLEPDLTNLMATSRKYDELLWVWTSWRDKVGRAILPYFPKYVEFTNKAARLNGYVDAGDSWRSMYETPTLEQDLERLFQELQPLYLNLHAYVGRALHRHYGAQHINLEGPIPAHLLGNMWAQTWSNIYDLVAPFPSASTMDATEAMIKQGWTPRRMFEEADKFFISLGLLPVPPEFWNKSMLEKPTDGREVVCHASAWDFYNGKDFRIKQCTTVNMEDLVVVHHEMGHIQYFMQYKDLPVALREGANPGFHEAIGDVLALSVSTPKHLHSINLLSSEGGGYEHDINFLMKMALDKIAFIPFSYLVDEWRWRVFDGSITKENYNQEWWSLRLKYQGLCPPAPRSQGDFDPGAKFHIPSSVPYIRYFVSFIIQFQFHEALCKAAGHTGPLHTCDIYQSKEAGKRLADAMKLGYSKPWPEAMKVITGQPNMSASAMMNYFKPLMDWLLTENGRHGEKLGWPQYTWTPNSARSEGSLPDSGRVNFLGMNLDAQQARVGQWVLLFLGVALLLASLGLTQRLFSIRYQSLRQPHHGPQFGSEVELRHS
# Assay: Spectrophotometric Assay for Angiotensin Converting Enzyme Inhibitors
# Type: biochemical
# Details: substrate benzoyl-glycyl-histidyl-leucine; crude ACE extract from rabbit lung acetone powder; 30 minutes at 37° C.
# Description: The activity of the novel compounds of this invention as hypotensive agents was established in two systems which measure their ability as angiotensin converting enzyme inhibitors; by utilizing a spectrophotometric assay of the compounds in vitro and by the measurement of the blood pressure lowering effect of the compounds in the aorta-coarcted renal hypertensive rats.
# Spectrophotometric Assay for Angiotensin Converting Enzyme Inhibitors
# The in vitro activity for inhibition of the angiotensin converting enzyme (ACE) was measured by the method of Cushman, D. W. and Cheung, H. S., Biochem. Pharmacol., 20, 1637-1648 (1971), using benzoyl-glycyl-histidyl-leucine as the substrate. The reaction mixture consisted of 50 μl. of potassium phosphate (500 mM., pH 10.2), […]. of sodium chloride (2500 mM.), 25 μl. of substrate (50 mM.), 30 to 50 μl. of the crude extract of ACE, 10 μl. of test compound (2.5 mM.) or vehicle and a suitable amount of distilled water to give a total volume of 250 μl. This reaction mixture was incubated for 30 minutes at 37° C. and the reaction was then terminated by the addition of 250 μl. of 1 N hydrochloric acid. The hippuric acid was then extracted with 1.5 ml. of ethyl acetate by vortex mixing for 15 seconds. After centrifugation, one ml. of th ethyl acetate layer was pipetted into a new tube and vaporated to dryness. The extracted hippuric acid was then dissolved in one ml. of water and the amount of this acid was then measured by its absorbance at 228 nm. The ACE was extracted from rabbit lung acetone powder (Pel-Freez Biol. Inc.) by blending 5 g. of the powder in 50 ml. of phosphate buffer (50 mM., pH 8.3) and then centrifuging at 40,000 g for 40 minutes. The supernatant was then kept at 5° C. and used as the enzyme source. The activity of the ACE inhibitor was calculated as the percent inhibition of ACE activity compared to the control value of that particular assay. A full dose-response inhibitory curve is then performed to determine the IC50 value which may be defined as the molar concentration of a compound that will inhibit the ACE activity by 50%.
row,IC50 [nM],Compound
1,256,"CC(=O)SC(CC(=O)N1CCC[C@H]1C(=O)O)C(=O)c1cccs1 (stereo partly drawn) [Example 1, 1-[3-(Acetylthio)-3-(2-thenoyl)propionyl]-L-proline]"
2,109,"CC(=O)SC(CC(=O)N1CCC[C@H]1C(=O)O)C(=O)c1ccc(Br)s1 (stereo partly drawn) [Example 2, 1-[3-(Acetylthio)-3-(5-bromo-2-thenoyl)propionyl]-L-proline]"
3,108,"CC(=O)SC(CC(=O)N1CCC[C@H]1C(=O)O)C(=O)c1ccc(Cl)s1 (stereo partly drawn) [Example 3, 1-[3-(Acetylthio)-3-(5-chloro-2-thenoyl)propionyl]-L-proline]"
4,139,"CC(=O)SC(CC(=O)N1CCC[C@H]1C(=O)O)C(=O)c1csc2ccccc12 (stereo partly drawn) [Example 4, 1-[3-(Acetylthio)-3-(benzo[b]thien-3-ylcarbonyl)propionyl]-L-proline]"
5,21000,"CC(=O)SC(C(=O)c1cc2ccccc2s1)C(C)C(=O)N1CCC[C@H]1C(=O)O (stereo partly drawn) [Example 35, 1-[3-Acetylthio-3-(benzo[b]thien-2-ylcarbonyl)-2-methylpropionyl]-L-proline]"
6,675,"CC(=O)SC(CC(=O)N1CCC[C@H]1C(=O)O)C(=O)c1ccco1 (stereo partly drawn) [Example 36, 1-[3-Acetylthio-3-(2-furoyl)propionyl]-L-proline]"
7,74,"CC(=O)SC(CC(=O)N1CCC[C@H]1C(=O)O)C(=O)c1cc2ccccc2o1 (stereo partly drawn) [Example 37, 1-[3-Acetylthio-3-(2-benzofuranylcarbonyl)propionyl]-L-proline]"
